Test results as given in patent publication US8921267B2, “Safening 6-(trisubstituted phenyl)-4-amino-2-pyridinecarboxylate herbicide injury on cereal crops” (Dow AgroSciences LLC, priority 2008, dated 2014).

Columns and labels:
[1] = system: purple deadnettle (Lamium purpureum L; LAMPU); assay: Postemergence herbicidal activity, greenhouse, visual injury: purple deadnettle; type: in vivo
Description: (§1) Evaluation of Postemergence Herbicidal Safening in Cereal Crops
(§2) Seeds of the desired test plant species were planted in Sun Gro MetroMix® 306 planting mixture, which typically has a pH of 6.0 to 6.8 and an organic matter content of about 30 percent, in plastic pots with a surface area of 103.2 square centimeters (cm^2). When required to ensure good germination and healthy plants, a fungicide treatment and/or other chemical or physical treatment was applied. The plants were grown for 7-36 days (d) in a greenhouse with an approximate 14-hour (h) photoperiod which was maintained at about 18° C. during the day and 17° C. during the night. Nutrients and water were added on a regular basis and supplemental lighting was provided with overhead metal halide 1000-Watt lamps as necessary. The plants were employed for testing when they reached the second or third true leaf stage.
(§3) Weighed amounts of esters (methyl) or salts (TEA [triethylammonium], K [potassium]) of 4-amino-3-chloro-6-(4-chloro-2-fluoro-3-methoxyphenyl)pyridine-2-carboxylic acid (Compound 1) were dissolved in a volume of 97:3 volume/volume (v/v) acetone/dimethylsulfoxide (DMSO) to obtain stock solutions. […] The concentrated stock solutions were diluted with an aqueous mixture of 1.5% v/v of Agri-dex crop oil concentrate to provide the appropriate application rates. Compound requirements are based upon a 12 mL application volume at a rate of 187 liters per hectare (L/ha). Stocks solutions of the safeners were prepared following the same procedure. Spray solutions of the safeners and experimental compound mixtures were prepared by adding the stock solutions to the appropriate amount of dilution solution to form a 12 mL spray solution with active ingredients in two-way combinations. Formulated compounds were applied to the plant material with an overhead Mandel track sprayer equipped with 8002E nozzles calibrated to deliver 187 L/ha over an application area of 0.503 square meters (m^2) at a spray height of 18 inches (43 centimeters (cm)) above average plant canopy. Control plants were sprayed in the same manner with the solvent blank.
(§4) The treated plants and control plants were placed in a greenhouse as described above and watered by sub-irrigation to prevent wash-off of the test compounds. After 20-22 d, the condition of the test plants as compared with that of the control plants was determined visually and scored on a scale of 0 to 100 percent where 0 corresponds to no injury and 100 corresponds to complete kill.
(§5) Colby's equation was used to determine the herbicidal effects expected from the mixtures (Colby, S. R. Calculation of the synergistic and antagonistic response of herbicide combinations. Weeds 1967, 15, 20-22.).
(§6) The following equation was used to calculate the expected activity of mixtures containing two active ingredients, A and B: Expected=A+B−(A×B/100)
(§7) A=observed efficacy of active ingredient A at the same concentration as used in the mixture.
(§8) B=observed efficacy of active ingredient B at the same concentration as used in the mixture.

[2] = system: Russian thistle (Salsola iberica L; SASKR); assay: Postemergence herbicidal activity, greenhouse, visual injury: Russian thistle; type: in vivo; details: applied alone
Description: as §1, §2, §3, §4, §5, §6, §7, §8

[3] = system: cleavers (Galium aparine L; GALAP); assay: Postemergence herbicidal activity, greenhouse, visual injury: cleavers; type: in vivo; details: applied alone
Description: as §1, §2, §3, §4, §5, §6, §7, §8

[4] = system: corn poppy (Papaver rhoeas L; PAPRH); assay: Postemergence herbicidal activity, greenhouse, visual injury: corn poppy; type: in vivo; details: for PAPRH Ob: applied alone
Description: as §1, §2, §3, §4, §5, §6, §7, §8

barley (HORVW) = assay: Postemergence herbicidal safening, greenhouse, visual injury: barley (HORVW)
[5] = system: durum wheat (Triticum durum L; TRZDU); assay: Postemergence herbicidal safening, greenhouse, visual injury: durum wheat; type: in vivo
Description: as §1, §2, §3, §4, §5, §6, §7, §8

[6] = system: wheat (Triticum aestivum L; TRZAS); assay: Postemergence herbicidal safening, greenhouse, visual injury: wheat; type: in vivo; details: for TRZAS Ob: applied alone
Description: as §1, §2, §3, §4, §5, §6, §7, §8

[7] = system: wild pansy (Viola tricolor L; VIOTR); assay: Postemergence herbicidal activity, greenhouse, visual injury: wild pansy; type: in vivo; details: applied alone
Description: as §1, §2, §3, §4, §5, §6, §7, §8

[8] = system: chickweed (Stellaria media L; STEME); assay: Postemergence herbicidal activity, greenhouse, visual injury: chickweed; type: in vivo; details: applied alone
Description: as §1, §2, §3, §4, §5, §6, §7, §8

[9] = system: barley (Hordeum vulgare L; HORVS); assay: Postemergence herbicidal safening, greenhouse, visual injury: barley; type: in vivo; details: for HORVS Ob: applied alone
Description: as §1, §2, §3, §4, §5, §6, §7, §8

[10] = system: bird's-eye speedwell (Veronica persica L; VERPE); assay: Postemergence herbicidal activity, greenhouse, visual injury: bird's-eye speedwell; type: in vivo; details: applied alone
Description: as §1, §2, §3, §4, §5, §6, §7, §8

[11] = system: wheat (Triticum aestivum L; TRZAW); assay: Postemergence herbicidal safening, greenhouse, visual injury: wheat (TRZAW); type: in vivo
Description: as §1, §2, §3, §4, §5, §6, §7, §8

[12] = system: wild buckwheat (Polygonum convolvulus L; POLCO); assay: Postemergence herbicidal activity, greenhouse, visual injury: wild buckwheat; type: in vivo; details: applied alone
Description: as §1, §2, §3, §4, §5, §6, §7, §8

With `CCOC(=O)C1=NN(c2ccc(Cl)cc2Cl)C(C)(C(=O)OCC)C1` (stereo not shown) [Mefenpyr-diethyl] the “LAMPU Ob (Observed values)” value ([1]; safener 4.4 g/ha alone) was 0, the “LAMPU Ob (Observed values)” value ([1]; safener 8.8 g/ha alone) was 0 and the “LAMPU Ob (Observed values)” value ([1]; safener 17.5 g/ha alone) was 0. For the same molecule, the “LAMPU Ob (Observed values)” value ([1]; safener 35 g/ha alone) was 0, the “SASKR Ob” value ([2]; 17.5 g/ha) was 0 and the “SASKR Ob” value ([2]; 35 g/ha) was 0. The “SASKR Ob” value ([2]; 70 g/ha) was 0, the “SASKR Ob” value ([2]; 140 g/ha) was 0 and the “GALAP Ob” value ([3]; 17.5 g/ha) was 0. The “GALAP Ob” value ([3]; 35 g/ha) was 0, the “GALAP Ob” value ([3]; 70 g/ha) was 0 and the “GALAP Ob” value ([3]; 140 g/ha) was 0. The “PAPRH Ob” value ([4]; 17.5 g/ha) was 0, the “PAPRH Ob” value ([4]; 35 g/ha) was 0 and the “PAPRH Ob” value ([4]; 70 g/ha) was 0. For the same molecule, the “PAPRH Ob” value ([4]; 140 g/ha) was 0, the “PAPRH Ob (Observed values)” value ([4]; safener 4.4 g/ha alone) was 0 and the “PAPRH Ob (Observed values)” value ([4]; safener 8.8 g/ha alone) was 0. The “PAPRH Ob (Observed values)” value ([4]; safener 17.5 g/ha alone) was 0, the “PAPRH Ob (Observed values)” value ([4]; safener 35 g/ha alone) was 0 and the HORVW Ob (Observed values) (barley (HORVW); safener 4.4 g/ha alone) was 0%. For the same molecule, the HORVW Ob (Observed values) (barley (HORVW); safener 8.8 g/ha alone) was 0%, the HORVW Ob (Observed values) (barley (HORVW); safener 17.5 g/ha alone) was 0% and the HORVW Ob (Observed values) (barley (HORVW); safener 35 g/ha alone) was 0%. For the same molecule, the TRZDU Ob (Observed values) ([5]; safener 4.4 g/ha alone) was 0%, the TRZDU Ob (Observed values) ([5]; safener 8.8 g/ha alone) was 0% and the TRZDU Ob (Observed values) ([5]; safener 17.5 g/ha alone) was 0%. The TRZDU Ob (Observed values) ([5]; safener 35 g/ha alone) was 0%, the TRZAS Ob ([6]; 17.5 g/ha) was 0% and the TRZAS Ob ([6]; 35 g/ha) was 0%. The TRZAS Ob ([6]; 70 g/ha) was 0%, the TRZAS Ob ([6]; 140 g/ha) was 0% and the “TRZAS Ob (Observed values)” value ([6]; safener 4.4 g/ha alone) was 0. For the same molecule, the “TRZAS Ob (Observed values)” value ([6]; safener 8.8 g/ha alone) was 0, the “TRZAS Ob (Observed values)” value ([6]; safener 17.5 g/ha alone) was 0 and the “TRZAS Ob (Observed values)” value ([6]; safener 35 g/ha alone) was 0. For the same molecule, the “VIOTR Ob” value ([7]; 17.5 g/ha) was 0, the “VIOTR Ob” value ([7]; 35 g/ha) was 0 and the “VIOTR Ob” value ([7]; 70 g/ha) was 0. For the same molecule, the “VIOTR Ob” value ([7]; 140 g/ha) was 0, the “STEME Ob” value ([8]; 17.5 g/ha) was 0 and the “STEME Ob” value ([8]; 35 g/ha) was 0. The “STEME Ob” value ([8]; 70 g/ha) was 0, the “STEME Ob” value ([8]; 140 g/ha) was 0 and the HORVS Ob ([9]; 17.5 g/ha) was 0%. For the same molecule, the HORVS Ob ([9]; 35 g/ha) was 0%, the HORVS Ob ([9]; 70 g/ha) was 0% and the HORVS Ob ([9]; 140 g/ha) was 0%. For the same molecule, the “HORVS Ob (Observed values)” value ([9]; safener 4.4 g/ha alone) was 0, the “HORVS Ob (Observed values)” value ([9]; safener 8.8 g/ha alone) was 0 and the “HORVS Ob (Observed values)” value ([9]; safener 17.5 g/ha alone) was 0. The “HORVS Ob (Observed values)” value ([9]; safener 35 g/ha alone) was 0, the “VERPE Ob” value ([10]; 17.5 g/ha) was 0 and the “VERPE Ob” value ([10]; 35 g/ha) was 0. The “VERPE Ob” value ([10]; 70 g/ha) was 0, the “VERPE Ob” value ([10]; 140 g/ha) was 0 and the TRZAW Ob (Observed values) ([11]; safener 4.4 g/ha alone) was 0%. For the same molecule, the TRZAW Ob (Observed values) ([11]; safener 8.8 g/ha alone) was 0%, the TRZAW Ob (Observed values) ([11]; safener 17.5 g/ha alone) was 0% and the TRZAW Ob (Observed values) ([11]; safener 35 g/ha alone) was 0%. The “POLCO Ob” value ([12]; 17.5 g/ha) was 0, the “POLCO Ob” value ([12]; 35 g/ha) was 0 and the “POLCO Ob” value ([12]; 70 g/ha) was 0. For the same molecule, the “POLCO Ob” value ([12]; 140 g/ha) was 0.
